Data set [1] is described as follows: in situ brain perfusion assay, Angiopep-1 dimer vs Angiopep-2. It counts as in vivo. As to the method:
Volume of brain parenchymal distribution was measured using the in situ brain perfusion assay (FIG. 6). […] Parenchymal uptake of the Angiopep-1 dimer and Angiopep-2 was also measured at various concentrations in situ (FIG. 7).

For data set [2] the following is noted: relative to Angiopep-1 (250 nM); threshold defining 'efficiently transported across the BBB'; cited from earlier work.

The values below come from patent US9161988B2, “Multimeric peptide conjugates and uses thereof” (Angiochem Inc., priority 2009, dated 2015).

In the case of `C[C@@H](O)[C@H](N)C(=O)N[C@@H](Cc1ccccc1)C(=O)N[C@@H](Cc1ccccc1)C(=O)N[C@@H](Cc1ccc(O)cc1)C(=O)NCC(=O)NCC(=O)N[C@@H](CSSC[C@H](NC(=O)CNC(=O)CNC(=O)[C@H](Cc1ccc(O)cc1)NC(=O)[C@H](Cc1ccccc1)NC(=O)[C@H](Cc1ccccc1)NC(=O)[C@@H](N)[C@@H](C)O)C(=O)N[C@@H](CCCNC(=N)N)C(=O)NCC(=O)N[C@@H](CCCCN)C(=O)N[C@@H](CCCNC(=N)N)C(=O)N[C@@H](CC(N)=O)C(=O)N[C@@H](CC(N)=O)C(=O)N[C@@H](Cc1ccccc1)C(=O)N[C@@H](CCCCN)C(=O)N[C@H](C(=O)N[C@@H](CCC(=O)O)C(=O)N[C@@H](CCC(=O)O)C(=O)N[C@@H](Cc1ccc(O)cc1)C(N)=O)[C@@H](C)O)C(=O)N[C@@H](CCCNC(=N)N)C(=O)NCC(=O)N[C@@H](CCCCN)C(=O)N[C@@H](CCCNC(=N)N)C(=O)N[C@@H](CC(N)=O)C(=O)N[C@@H](CC(N)=O)C(=O)N[C@@H](Cc1ccccc1)C(=O)N[C@@H](CCCCN)C(=O)N[C@H](C(=O)N[C@@H](CCC(=O)O)C(=O)N[C@@H](CCC(=O)O)C(=O)N[C@@H](Cc1ccc(O)cc1)C(N)=O)[C@@H](C)O` [Angiopep-1 dimer], in data set [1] (as compared to monomeric Angiopep-2, especially at lower concentrations, FIG. 6), the “Volume of brain parenchymal distribution” value is given as “Great uptake volumes”. Further, in data set [1] (various concentrations in situ, especially at lower concentrations (<500 nmol), compared to Angiopep-2 monomer, FIG. 7), the Parenchymal uptake result is “higher transport than the Angiopep-2 monomer”.

For “Angiopep-6: peptide vector, SEQ ID NO:111, T F F Y G G S R G K R N N F R T E E Y (TFFYGGSRGKRNNFRTEEY)”, the “transport across the BBB relative to Angiopep-1” value in data set [2] is on record as 38.5%.
